Experimental data: article PMC4815073, “Targeting of tubulin polymerization and induction of mitotic blockage by Methyl 2-(5-fluoro-2-hydroxyphenyl)-1H-benzo[d]imidazole-5-carboxylate (MBIC) in human cervical cancer HeLa cell” (Journal of Experimental & Clinical Cancer Research : CR, 2016)

Assays:
HeLa cells [1] = test: MTT cytotoxicity assay, HeLa; assay type: cell-based, human; conditions: for IC50: Homo sapiens, HeLa, MTT; for SI (Selectivity Index): IC50 WRL-68 / IC50 HeLa
Excerpt: (§1) The human cervical cancer cell-line, HeLa (CCL-2.2; ATCC, Manassas, VA), HCT-116 (CCL-247; ATCC, Manassas, VA), A549 (CCL-185; ATCC, Manassas, VA), HepG-2 (HB-8065; ATCC, Manassas, VA) and WRL-68 (CL-48; ATCC, Manassas, VA), were obtained from American Type Culture Collection (ATCC). HeLa, A549, HepG2 and WRL68 cells were maintained in Dulbecco’s Modified Eagle Medium (DMEM, Life Technologies, Inc, Rockville, MD). HCT-116 was obtained in McCoy’s 5a Medium Modified (Life Technologies, Inc, Rockville, MD) supplemented with 10 % fetal bovine serum and 1 % penicillin/streptomycin. Cells were incubated at 37 °C in a humidified cell culture 5 % CO2 incubator. Cells were passaged until reaching 70-80-% confluency for experimental purposes.
(§2) Cytotoxicity of MBIC was estimated by MTT assay. Briefly, 1 × 10^4 cells/well were seeded in a 96-well plate and incubated at 37 °C in 5 % CO2. After 24 h, cells were treated with different concentrations (0.02, 0.04, 0.1, 0.2, 0.4, 0.8, 1.5, 3, 6, 12, 25, 50 μM) of MBIC. 0.01 % DMSO was used as vehicle control. Cells were incubated for 24 and 48 h at 37 °C. Subsequently, 50 μl/well of 3-(4,5-dimethylthiazol-2-yl)-2,5-diphenyltetrazolium bromide (MTT, 2 mg/ml) was added and incubated for 2 h. After the incubation, the media was discarded and 100 μl DMSO was replaced into each well to dissolve the formazan crystal. The colorimetric assay was quantified at 570 nm wavelength using Chameleon V microplate reader (Hidex, Turku, Finland). The anti-proliferation activity of MBIC was expressed as an IC50 value. The percentage of cell viability was calculated as described previously.

HCT-116 cells = test: MTT cytotoxicity assay, HCT-116; assay type: cell-based, human; conditions: for IC50: Homo sapiens, MTT
Excerpt: as §1, §2

A549 cells = test: MTT cytotoxicity assay, A549; assay type: cell-based, human; conditions: for IC50: Homo sapiens, MTT
Excerpt: as §1, §2

HepG-2 cells = test: MTT cytotoxicity assay, HepG-2; assay type: cell-based, human; conditions: for IC50: Homo sapiens, HepG2, MTT
Excerpt: as §1, §2

[2] = Annexin V-FITC/PI apoptosis detection by flow cytometry; assay type: cell-based, human; conditions: human, HeLa cells, read-out: viable cells (Q3, annexin V- PI-)
Protocol: (§3) Apoptosis was detected using BD Pharmingen Annexin V-FITC Apoptosis Detection Kit as per manufacturer’s protocol. Briefly, cells were seeded in 25 cm^2 culture flasks (10 × 10^5 cells/flask) and were treated in 3 different MBIC concentrations for 24 and 48 h. Later, treated cells were harvested and washed with 1 ml of 1X Phosphate Buffered-Saline (PBS) before adding 200 μl 1X annexin-binding buffer. 10 μl of annexin V-FITC and 10 μl of PI were added to each 200 μl of cell suspension. Cells were then incubated in total darkness for 15 min at room temperature. 500 μl of 1X annexin-binding buffer was added just before the flow cytometry analysis.

HeLa cells [3] = test: as above; assay type: cell-based, human; conditions: 24 h
Protocol: as §3

tubulin = target: T1, tubulin (Sus scrofa, UniProt P02550+P02554); test: Tubulin polymerization assay; assay type: biochemical; conditions: 10 μM drug, 3 mg/ml tubulin, 37 °C, 340 nm; untreated 12 mOD/min
T1 construct: purchased Cytoskeleton BK011P
T1 sequence (P02550 whole entry): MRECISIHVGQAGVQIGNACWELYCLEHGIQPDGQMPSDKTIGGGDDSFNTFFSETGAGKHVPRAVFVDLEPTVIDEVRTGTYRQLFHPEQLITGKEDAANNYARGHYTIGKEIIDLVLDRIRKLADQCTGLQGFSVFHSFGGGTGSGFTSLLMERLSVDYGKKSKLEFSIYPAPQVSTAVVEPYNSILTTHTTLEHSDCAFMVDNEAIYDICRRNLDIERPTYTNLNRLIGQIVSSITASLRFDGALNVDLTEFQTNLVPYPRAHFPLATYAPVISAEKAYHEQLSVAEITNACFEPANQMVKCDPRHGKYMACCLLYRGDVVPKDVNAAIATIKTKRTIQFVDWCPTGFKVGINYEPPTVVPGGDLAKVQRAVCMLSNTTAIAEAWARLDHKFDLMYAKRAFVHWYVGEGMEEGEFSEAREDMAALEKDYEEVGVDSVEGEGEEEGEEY
T1 sequence (P02554 whole entry): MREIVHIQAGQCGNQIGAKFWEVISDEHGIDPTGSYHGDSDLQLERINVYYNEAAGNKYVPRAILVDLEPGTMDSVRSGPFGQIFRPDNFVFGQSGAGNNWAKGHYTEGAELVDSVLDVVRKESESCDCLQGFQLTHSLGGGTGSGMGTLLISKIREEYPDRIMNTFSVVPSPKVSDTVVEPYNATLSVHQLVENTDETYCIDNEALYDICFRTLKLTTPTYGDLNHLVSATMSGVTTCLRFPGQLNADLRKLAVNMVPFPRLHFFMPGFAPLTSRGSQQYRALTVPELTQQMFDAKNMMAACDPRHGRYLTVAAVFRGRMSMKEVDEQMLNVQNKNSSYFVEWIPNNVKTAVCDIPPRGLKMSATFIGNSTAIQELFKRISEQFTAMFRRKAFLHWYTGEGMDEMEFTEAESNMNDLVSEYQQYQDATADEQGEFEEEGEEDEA
Protocol: To investigate the effect of MBIC on tubulin polymerization, a fluorescence-based tubulin polymerization assay kit (Cytoskeleton-Cat. # BK011P) was used according to the manufacturer’s protocol. Briefly, 200 μl of pure tubulin protein was re-suspended in 420 μl of ice cold Tubulin Polymerization Buffer (TPB) to give a final concentration of 3 mg/ml tubulin, supplemented with 80 mM PIPES, 2 mM MgCl2, 0.5 mM EGTA, 1 mM GTP, 20 % (v/v) glycerol. 100 μl of tubulin reaction mixture were added to each well in a 96-well plate containing the selected concentration of MBIC (10 μM). […] Samples were mixed well and the tubulin assembly was monitored by an increase in fluorescence emission at 340 nm in kinetic mode for 120 min at 37 °C using a plate reader (Infinite® 200 PRO—Tecan plate reader, USA).

[4] = test system: Bcl-2, Bax, cleaved caspase-3/7/9, cleaved PARP; test: Western blot, mitochondrial-dependent apoptotic proteins in HeLa cells; assay type: cell-based, human; conditions: HeLa, 0.21, 0.42 and 1 μM, 24 h
Protocol: Western blot analysis was used to investigate protein expression levels. It was adopted by Suresh Kumar et al.. Briefly, 1 × 10^5 cells/flask was seeded and treated with MBIC in a dose-dependent manner for 24 h. Cells treated with colchicine and nocodazole served as positive controls. Cells were collected and lysed in RIPA buffer supplemented with a 10 μl protease inhibitor cocktail, sodium orthovanadate, and PMSF (Santa Cruz, USA). The lysate was stored at −80 °C until further use. A 40 μg of sample protein was resolved on 10 % SDS-PAGE and transferred to a polyvinylidene difluoride (PVDF) membrane (Merck Millipore, USA). The membrane was blocked in 5 % BSA for 1 h at room temperature following an overnight incubation at 4 °C with the following primary antibodies: Anti-Cyclin B1, anti-CDK1, anti-BubR1, anti-Aurora B, anti-cleaved PARP, anti-cleaved caspase-3/7/9, anti-Bcl-2 and anti-Bax (1:1000) (Cell Signaling Technology (CST), USA), mouse anti β-actin (1:40000) (Sigma-Aldrich, USA) antibodies.
Membranes were washed with 1X TBS-T prior to incubating with HRP-conjugated goat anti-mouse or anti-rabbit secondary antibodies for 2 h at room temperature. Membranes were washed 3 times with 1X TBS-T to remove excess antibodies before the proteins-antibody complex was detected with Amersham ECL prime western blotting detection reagent (GE Healthcare, USA). Western blot images were quantified and processed by ImageJ software (NIH, USA).

[5] = test system: two breast cancer cell lines; parameters: method as in earlier work; conditions: cited from earlier work

Tubulin polymerization maximal velocity (Vmax) (tubulin): 2.45 mOD/min
SMILES: COC(=O)c1ccc2[nH]c(-c3cc(F)ccc3O)nc2c1 [MBIC, Methyl 2-(5-fluoro-2-hydroxyphenyl)-1H-benzo[d]imidazole-5-carboxylate]
IC50 (HeLa cells [1]; 24 hours): 210 ± 20 nM
IC50 (HeLa cells [1]; 48 hours): 190 ± 30 nM
SI (Selectivity Index) (HeLa cells [1]; 24 hours): 48.04
SI (Selectivity Index) (HeLa cells [1]; 48 hours): 37.68
selectivity in HeLa cells (HeLa cells [1]; versus WRL-68, 24 and 48 h): > 30 fold
IC50 (HCT-116 cells; HCT-116, 24 hours): 2720 ± 400 nM
IC50 (HCT-116 cells; HCT-116, 48 hours): 2010 ± 300 nM
SI (Selectivity Index) (HCT-116 cells; IC50 WRL-68 / IC50 HCT-116, 24 hours): 3.70
SI (Selectivity Index) (HCT-116 cells; IC50 WRL-68 / IC50 HCT-116, 48 hours): 3.56
IC50 (A549 cells; A549, 24 hours): 1290 ± 70 nM
IC50 (A549 cells; A549, 48 hours): 530 ± 100 nM
SI (Selectivity Index) (A549 cells; IC50 WRL-68 / IC50 A549, 24 hours): 7.82
SI (Selectivity Index) (A549 cells; IC50 WRL-68 / IC50 A549, 48 hours): 13.50
IC50 (HepG-2 cells; HepG-2, 24 hours): 2920 ± 100 nM
IC50 (HepG-2 cells; HepG-2, 48 hours): 1030 ± 90 nM
SI (Selectivity Index) (HepG-2 cells; IC50 WRL-68 / IC50 HepG-2, 24 hours): 3.45
SI (Selectivity Index) (HepG-2 cells; IC50 WRL-68 / IC50 HepG-2, 48 hours): 6.95
viability at 24 h, 0.21 µM ([2]; 0.21 μM): 48.8%
viability at 24 h, 0.42 µM ([2]; 0.42 μM): 36.2%
viability at 24 h, 1 µM ([2]; 1 μM): 17.4%
late apoptotic cells (Q2, annexin V+ PI+) (HeLa cells [3]; 0.21 μM): 44.8 ± 2.3%
late apoptotic cells (Q2, annexin V+ PI+) (HeLa cells [3]; 1 μM): 74.8 ± 4.2%
Bax protein level (Western blot) [4]: up-regulation
Bcl-2 protein level (Western blot) [4]: down-regulation
cleaved (activated) caspase-3/7/9 level (Western blot) [4]: increased
cleaved PARP level (Western blot) [4]: increased level
cytotoxic effect compared to cisplatin [5]: potent cytotoxic effect
